In patent publication US11591341B2 (ALIGOS THERAPEUTICS, INC., priority 2019, dated 2023) one finds EC50 data, which are given here for eight molecules.

A value given as a limit tells only on which side of the number the result lay.

As usually defined, the EC50 is the concentration giving half of the maximal effect.

The subject of the experiment is HBV. Description: HBV-DNA Antiviral Assay Using HepG2.2.15 Cells (extracellular HBV DNA by qPCR). In kind it is cell-based. Conditions: Hepatitis B virus, 168 h; HBV DNA inhibition, HepG2.2.15 cells, extracellular HBV DNA by qPCR on day 7; read-out: EC50. The method, then: The following assay procedure describes the HBV antiviral assay. This assay uses HepG2.2.15 cells, which have been transfected with HBV genome, and extracellular HBV DNA quantification as endpoint. Cell viability is assessed in parallel by measuring the intracellular ATP content using the CellTiter-Glo© reagent from Promega.
On day 0, HepG2.2.15 cells were seeded in 96-well plates at a density of 6.0×10^4 cells/well (0.1 mL/well). The cells were incubated at 37° C. and 5% CO2.
On day 1, the test articles were diluted and added to cell culture wells (8 concentrations, 4-fold dilution, in duplicate). GLS4, Tenofovir and Sorafenib were used as reference compounds. 100 μL of culture medium containing the compounds was added to the plate, and the final total volume per well was 200 μL. The final concentration of DMSO in the culture medium was 0.5%. The plate map of compound treatment is shown below. The cells were cultured at 37° C. and 5% CO2 for 3 days.
On day 4, the plates were refreshed with culture media with compounds.
On day 7, cell viability was assessed using the CellTiter-Glo, and the cell culture supernatants were collected for determination of HBV DNA by qPCR.
Extracellular DNA was isolated with QIAamp 96 DNA Blood Kit per the manufacturer's manual. HBV DNA was then quantified by qPCR with HBV specific primers and probes as specified in Table 1 using the FastStart Universal MasterMix from Roche on an ABI-7900HT. The PCR cycle program consisted of 95° C. for 10 min, followed by 40 cycles at 95° C. for 15 sec and 60° C. for 1 min.
A DNA standard was prepared by dilution of the pAAV2 HBV1.3 plasmid with concentrations ranging from 10 to 1×10^7 copies/μL and used to generate a standard curve by plotting Ct value vs. the concentration of the HBV plasmid DNA standard. The quantity of HBV DNA in each sample was determined by interpolating from the standard curve.
Cell viability was calculated as follows: % Cell viability=(luminescence value of test sample−average luminescence value of blank)/(average luminescence value of 0.5% DMSO control−average luminescence of blank)×100%. HBV DNA inhibition was calculated as follows: 100-(HBV DNA copy number of test sample−HBV DNA copy number of ETV)/HBV DNA copy number of 0.5% DMSO control−HBV DNA copy number of ETV)×100%. The CC50, EC50 and EC90 values were determined by dose-response curves fitted by GraphPad Prism using “log (agonist) vs. response—Variable slope”.
Background: Real-time PCR tracks product formation cycle by cycle.
As to `O=C(Nc1ccc(F)c(Cl)c1)N1CCn2c(c3n(c2=O)CCN(Cc2ccccc2)C3=O)C1` [Example 16, 12-benzyl-N-(3-chloro-4-fluoro-phenyl)-8,13-dioxo-4,7,9,12-tetrazatricyclo[7.4.0.0^2,7]tridec-1-ene-4-carboxamide], the EC50 was in the range of 0.5 to 5 µM.
Next, `COc1ccc(CN2CCn3c(c4n(c3=O)CCN(C(=O)Nc3ccc(F)c(Cl)c3)C4)C2=O)cc1` [Example 17, N-(3-chloro-4-fluoro-phenyl)-12-[(4-methoxyphenyl)methyl]-8,13-dioxo-4,7,9,12-tetrazatricyclo[7.4.0.0^2,7]tridec-1-ene-4-carboxamide]: > 5 µM.
To `COc1ccc(CN2CCn3c(c4n(c3=O)CCN(C(=O)c3ccc(Br)c(F)c3)C4)C2=O)cc1` [Example 18, 12-(4-bromo-3-fluoro-benzoyl)-4-[(4-methoxyphenyl)methyl]-4,7,9,12-tetrazatricyclo[7.4.0.0^2,7]tridec-1-ene-3,8-dione] belongs > 5 µM; to `COc1ccc(CN2CCn3c(c4n(c3=O)CCN(C(=O)c3ccc(Br)c(Cl)c3)C4)C2=O)cc1` [Example 19, 12-(4-bromo-3-chloro-benzoyl)-4-[(4-methoxyphenyl)methyl]-4,7,9,12-tetrazatricyclo[7.4.0.0^2,7]tridec-1-ene-3,8-dione], > 5 µM; to `COc1ccc(CN2CCn3c(c4n(c3=O)CCN(C(=O)c3ccc(Br)cc3)C4)C2=O)cc1` [Example 20, 12-(4-bromobenzoyl)-4-[(4-methoxyphenyl)methyl]-4,7,9,12-tetrazatricyclo[7.4.0.0^2,7]tridec-1-ene-3,8-dione], > 5 µM.
Next, `O=C(NCc1ccccc1-c1nccnn1)c1c2n(c(=O)n1-c1ccc(OC3CC3)cc1)CCN(C(=O)c1ccc(Br)c(Cl)c1)C2` [Example 463, 7-(4-bromo-3-chloro-benzoyl)-2-[4-(cyclopropoxy)phenyl]-3-oxo-N-[[2-(1,2,4-triazin-3-yl)phenyl]methyl]-6,8-dihydro-5H-imidazo[1,5-a]pyrazine-1-carboxamide]: 0.1 to 0.5 µM.
Take `Cc1cccnc1-c1ccccc1CNC(=O)c1c2n(c(=O)n1-c1ccc(OC3CC3)cc1)CCN(C(=O)c1ccc(Br)c(Cl)c1)C2` [Example 464, 7-(4-bromo-3-chloro-benzoyl)-2-[4-(cyclopropoxy)phenyl]-N-[[2-(3-methyl-2-pyridyl)phenyl]methyl]-3-oxo-6,8-dihydro-5H-imidazo[1,5-a]pyrazine-1-carboxamide]: the EC50 is 0.5 to 5 µM.
On to `O=C(NCc1ccccc1-c1ncccc1F)c1c2n(c(=O)n1-c1ccc(OC3CC3)cc1)CCN(C(=O)c1ccc(Br)c(Cl)c1)C2` [Example 465, 7-(4-bromo-3-chloro-benzoyl)-2-[4-(cyclopropoxy)phenyl]-N-[[2-(3-fluoro-2-pyridyl)phenyl)methyl]-3-oxo-6,8-dihydro-5H-imidazo[1,5-a]pyrazine-1-carboxamide], for which the EC50 was 0.1 to 0.5 µM.
